Measurements from paper PMC10307035, “Antiviral activity of singlet oxygen-photogenerating perylene compounds against SARS-CoV-2: Interaction with the viral envelope and photodynamic virion inactivation” (Virus Research, 2023).

Key:
[1] = test system: feline infectious peritonitis virus (FIPV); assay type: cell-based, feline coronavirus (FCoV); details: 0–10 µM
SARS-CoV-2 = assay: Photodynamic inactivation of SARS-CoV-2 virions; assay type: cell-based; details: for antiviral effect under red light only: 100 µM; for antiviral effect under red light only / antiviral activity under red light only: dark room, 60 min at 37 °C; for antiviral activity after blue light irradiation of virus-compound mixture: 465–480 nm, 30 mW/cm^2, 10 min, then 60 min at 37 °C in the dark, plaque assay; for antiviral activity under red light only: up to 10 µM
Method: Virus in DMEM (titer of 10^5 PFU/mL) was mixed with the compounds (0–10 µM) in a microtiter plate, in triplicate, and irradiated for 10 min at RT with LEDs (465–480 nm) having an approximate power density of 30 mW/cm^2 (device description in supplement). As a negative control, virus was incubated for 10 min in the dark at RT. Subsequently, both irradiated and non-irradiated virus samples were incubated in the dark at 37 °C for 60 min. All manipulation with the samples before and after this incubation, i.e., mixing the compound with the virus, pipetting into a microtiter plate, etc., were performed in daylight. Viral titers were determined by plaque assays (performed also in daylight) and expressed as PFU/mL, as previously described ([Stefanik et al., 2021]). To eliminate the influence of daylight on compound activity, the whole experiment, including all manipulation with samples, was performed in a dark room under red light. The virus sample was mixed with the indicated compounds at concentrations from 0 to 10 μM or 100 μM, incubated for 60 min at 37 °C and virus viability was evaluated using a plaque assay (Fig. 9A).

[2] = ROS generation rate / quantum yield, DPBF bleaching in methanol; assay type: physicochemical; details: in methanol, DPBF trap, 450–470 nm illumination, riboflavin as reference
From the text: The ROS generation rate was estimated using the spectrophotometric method, based on the absorption changes of 1,3-diphenylisobenzofuran (DPBF, Sigma Aldrich, Germany) in methanol solution. Irreversible oxidation of DPBF by singlet oxygen results in peroxide formation, and DPBF bleaching. When light of 400–450 nm was used as actinic, DPBF bleaching occurred without any photosensitizer (PS) in solution. Therefore, to study photosensitized ROS generation, we used a white MCWHLP1 LED (Thorlabs, USA) with filters to limit the radiation to the 450–470 nm range (5.5 mW/cm^2).
Spectrophotometric measurements were performed in a Qpod 2e (Quantum Northwest, USA) thermostated cuvette holder at 25 °C with magnetic stirring (500 rpm). Absorption spectra were recorded using a MayaPro spectrophotometer (Ocean Optics, USA) and a stabilized white light source with a SLS201L tungsten lamp (Thorlabs, USA). Illumination was uniform over the entire volume of the cuvette, to prevent artifacts associated with the diffusion of non-reacted components into the illuminated volume of the cuvette. In this case, the rate of irreversible bleaching of DPBF (412 nm) was the same under both continuous and pulsed irradiation with equal total irradiation time. Illumination was performed in a pulsed mode (Fig. S5A), with 1 s of illumination followed by 5 s of dark adaptation, during which the absorption spectrum of the PS-DPBF solution was recorded. Data processing was performed as previously described ([Gvozdev et al., 2020]).

CRFK cells = assay: Cytotoxicity assay (Cell Counting Kit-8) in CRFK cells; assay type: cell-based, Felis catus; details: up to 10 µM
Method: (§1) To determine the overall cytotoxicity of the tested compounds, Vero cells were cultured for 24 h in 96-well plates to form a confluent monolayer, and then were treated with the tested compounds at concentrations of 2 and 10 µM. After 48 h of cultivation in the dark at 37 °C under 5% CO2, the cell culture medium was aspirated. The potential cytotoxicity of the tested perylene derivatives was determined based on cell viability using Cell Counting Kit-8 (Dojindo Molecular Technologies, Munich, Germany) according to the manufacturer's instructions. The cell viabilities of compound-treated Vero cells were compared with those of control DMSO-treated cells. We also used the above-described protocol to assess the cytotoxicity of the selected perylene antivirals, at concentrations ranging from 0 to 10 µM, in CaCo-2 and CRFK cells.

[3] = ROS generation measurement with DMA trap in DMSO; assay type: physicochemical; details: for ROS generation, DMA trap, under blue light: 465–480 nm, 30 mW/cm^2, 10 min; for ROS generation, DMA trap, in the dark or with α-tocopherol: 10 min, dark or α-tocopherol (3 µg/mL)
Method: ROS generation was also estimated using 9,10-dimethylanthracene (DMA), another specific fluorescent singlet oxygen trap, which forms nonfluorescent 9,10-dimethylanthracene endoperoxide after ROS-mediated DMA oxidation. Compounds (0, 0.1, 1, and 10 µM) in DMSO were mixed with DMA (0.5 µM), and these solutions were irradiated for 10 min at room temperature (RT) with light-emitting diodes (LED, 465–480 nm) having approximate power density of 30 mW/cm^2 (device description in Fig. S7). DMA fluorescence intensity was measured at ex/em wavelengths of 370/432 nm in the presence or absence of α-tocopherol (3 µg/mL) as an antioxidant. Singlet oxygen generation was accompanied by a decreased fluorescence signal of the DMA probe ([Zeng et al., 2020]).

Vero cells [4] = assay: Light-induced cytotoxicity in Vero cells; assay type: cell-based, African Green Monkey; details: 0–10 µM, 465–480 nm 10 min, then 24 h in the dark
Method: To determine the light-induced cytotoxicity of the tested compounds, Vero cells were cultured for 24 h in 96-well plates to form a confluent monolayer, and then were treated with the tested compounds at concentrations of 0 to 10 µM. Then, the compound-treated cells were irradiated for 10 min at RT with LEDs (465–480 nm) having an approximate power density of 30 mW/cm^2 (device description in Fig. S7). As a negative control, compound-treated cells were incubated for 10 min in the dark at RT. Subsequently, both irradiated and non-irradiated cell monolayers were incubated in the dark at 37 °C for 24 h. Then, the cell culture medium was aspirated and the potential cytotoxicity of the tested perylene derivatives was determined based on cell viability using Cell Counting Kit-8 (Dojindo Molecular Technologies, Munich, Germany) according to the manufacturer's instructions.

[5] = test system: SARS-CoV-2 (Wuhan strain); assay: Viral titer inhibition assay, SARS-CoV-2 in CaCo-2 cells; assay type: cell-based; details: 0–10 µM
CaCo-2 cells [6] = assay: Cytotoxicity assay (Cell Counting Kit-8) in CaCo-2 cells; assay type: cell-based, human; details: up to 10 µM
Method: as §1

CaCo-2 cells [7] = assay: Cellular stress marker expression by RT-qPCR in CaCo-2 cells; assay type: cell-based, human
Method: RT-qPCR was performed to evaluate changes in the gene expression of cellular stress markers. […] Previous publications report the primer sequences and numbers of the Universal Probe Library (UPL; Roche Life Sciences, Germany) used for detection of ATF3, CDKN1A (p21), CYP1A1, DDIT3, HMOX1, HSPA1B (HSP70), and HSPA5 mRNAs ([Procházková et al., 2018]; [Šimečková et al., 2020]). […] TaqMan™ Gene Expression Assays (Thermo Fisher Scientific, Waltham, MA, USA) were used to determine the levels of FGF21 (Hs00173927_m1), GADD45A (Hs00169255_m1), GDF15 (Hs00171132_m1), and SRXN1 (Hs00607800_m1). The amplification was run in a 10-µL reaction mixture containing 1 µL of sample, using Kapa Probe Fast One-Step (Kapa Biosystems Pty, Cape Town, South Africa) on a LightCycler® 480 System (Roche Diagnostics, Czech Republic) using the previously published sequence ([Procházková et al., 2018]). Reference gene qPCR assays (Generi Biotech, Hradec Králové, Czech Republic) were used for the following housekeeping genes: human β2-Microglobulin (B2M; #3030), hydroxymethylbilane synthase (HMBS; #3032), and RNA polymerase II subunit A (POLR2A; #3035). We used an average of three reference gene Cp values to calculate the change in gene expression using the comparative threshold cycle method ([Schmittgen and Livak, 2008]).

Vero cells [8] = assay: Cytotoxicity assay (Cell Counting Kit-8) in Vero cells; assay type: cell-based, African Green Monkey; details: 10 µM, 48 h
Method: as §1

| Compound | replication of FIPV in CRFK cells [1] | antiviral effect under red light only (SARS-CoV-2) | antiviral activity after blue light irradiation of virus-compound mixture (SARS-CoV-2) | antiviral activity under red light only (SARS-CoV-2) | φROS (ROS generation quantum yield) [2] [%] | tolerability by CRFK cells (CRFK cells) | ROS generation, DMA trap, under blue light [3] | ROS generation, DMA trap, in the dark or with α-tocopherol [3] | effect of blue light irradiation on cytotoxicity (Vero cells [4]) | anti-SARS-CoV-2 activity in CaCo-2 cells [5] | tolerability by CaCo-2 cells (CaCo-2 cells [6]) | expression of HSPA5, DDIT3, HSPA1B (HSP70), CDKN1A (p21), GADD45A (CaCo-2 cells [7]; CaCo-2 cells, 5, 24 and 48 h) | cell viability (in words) (Vero cells [8]) | increase of CYP1A1 mRNA level (CaCo-2 cells [7]; CaCo-2 cells, 10 nM) |
| --- | --- | --- | --- | --- | --- | --- | --- | --- | --- | --- | --- | --- | --- | --- |
| O=C(NCCCCO)c1ccc(-c2ccc3c4cccc5cccc(c6cccc2c63)c54)s1 [Compound 17] | potently suppressed the replication | no antiviral effect | low-nanomolar | completely disappeared | 59.0 ± 2.4 | well-tolerated | significant bleaching | no/limited bleaching | dramatically increased | sub-micromolar | well-tolerated | – | – | – |
| C/C=C(/C)C(=O)O[C@H]1C(C)=C2[C@H]([C@@H]1OC(=O)CCCCCCC)[C@@](C)(OC(C)=O)C[C@H](OC(=O)CCC)[C@@]1(O)[C@H]2OC(=O)[C@@]1(C)O [thapsigargin, reference compound] | – | – | – | – | – | – | – | – | – | – | – | increased | – | – |
| O=c1[nH]c(=O)n([C@H]2C[C@H](O)[C@@H](CO)O2)cc1C#Cc1ccc2c3cccc4cccc(c5cccc1c52)c43 [Compound 2, 5-(perylen-3-yl)ethynyl-2′-deoxy-uridine] | potently suppressed the replication | no antiviral effect | low-nanomolar | completely disappeared | 20.9 ± 0.2 | well-tolerated | significant bleaching | no/limited bleaching | dramatically increased | sub-micromolar | well-tolerated | – | – | – |
| CCCCNC(=O)Cn1cc(C#Cc2ccc3c4cccc5cccc(c6cccc2c63)c54)c(=O)n(COC(=O)C(C)(C)C)c1=O [Compound 8] | – | – | significant increase of antiviral activity | – | 17.6 ± 0.4 | – | – | – | no effect | – | – | – | moderately decreased cell viability | – |
| Clc1cc2c(cc1Cl)Oc1cc(Cl)c(Cl)cc1O2 [TCDD, reference compound] | – | – | – | – | – | – | – | – | – | – | – | – | – | up to 50 fold |
